Measurements as given in patent US11466044B2 (WAYNE STATE UNIVERSITY, priority 2017, dated 2022).
Values after ≈ are worked out from the molar mass of the structure shown. Where two headings read alike, the source gives them in different places.

Tests used:
[1] = tested on: E coli carrying specific resistance determinants; assay: MIC by broth microdilution, E coli carrying specific resistance determinants; format: cell-based
[2] = tested on: Acinetobacter baumannii pittii AG225; assay: MIC by broth microdilution, Acinetobacter baumannii; format: cell-based; details: strain AG225 Acinetobacter baumannii pittii
[3] = tested on: Klebsiella pneumonia AG215; assay: MIC by broth microdilution, Klebsiella pneumonia; format: cell-based; details: strain AG215 Klebsiella pneumonia
[4] = tested on: cytosolic ribosome (human chimeric); format: biochemical
Source text: (§1) The antiribosomal activity of these compounds was investigated with cell-free translation assays using both wild type bacterial ribosomes and hybrid ribosomes carrying eukaryotic decoding A sites enabling the prediction of selectivity.

[5] = tested on: mitochondrial ribosome (human chimeric); format: biochemical
Source text: as §1

[6] = tested on: P aeruginosa; assay: MIC by broth microdilution, P aeruginosa isolates; format: cell-based, Pseudomonas aeruginosa
[7] = tested on: Enterobacter cloacae AG290; assay: MIC by broth microdilution, Enterobacter cloacae; format: cell-based; details: strain AG290 Enterobacter cloacae
[8] = tested on: wild type bacterial ribosomes; assay: in-vitro translation assay, bacterial ribosomes; format: biochemical
Source text: as §1

[9] = tested on: M. abscessus; assay: MIC by broth microdilution, M. abscessus; format: cell-based
[10] = tested on: E coli wild type; assay: MIC by broth microdilution, wild type E coli; format: cell-based
[11] = tested on: rabbit reticulocyte ribosomes; assay: in-vitro translation assay, rabbit reticulocyte ribosomes; format: biochemical; details: mammalian cytosolic ribosomes (rabbit)

NC[C@@H]1O[C@H](O[C@H]2[C@@H](O)[C@H](O[C@@H]3[C@@H](O)[C@H](N)C[C@H](N)[C@H]3O[C@H]3O[C@H](CN)[C@@H](O)[C@H](O)[C@H]3N)O[C@@H]2CO)[C@H](N)[C@@H](O)[C@@H]1O [neomycin, Neomycin B, reference compound]
MIC50 E coli pH415 AAC(6′)-II ([1]; pH415 AAC(6′)-II, Table 2B (Example 2)): 4 μg/ml
MIC50 E coli pH421 APH(3′)-I ([1]; pH421 APH(3′)-I, Table 2B (Example 2)): >128 μg/ml
MIC50 E coli pH422 APH(3′)-II ([1]; pH422 APH(3′)-II, Table 2B (Example 2)): 64 μg/ml
MIC50 E coli pH423 APH(3)-VI ([1]; pH423 APH(3)-VI, Table 2B (Example 2)): 32-64 μg/ml
MIC50 E coli pH432 ANT(4′) ([1]; pH432 ANT(4′), Table 2B (Example 2)): 1 μg/ml
MIC E. coli pH434 AAC(2′)-Ib ([1]; pH434 AAC(2′)-Ib, Table 5 (Example 3)): >64 μg/ml
MIC AG225 A. baumannii [2]: 1 to 2 µg/mL
MIC AG215 K. pneumon [3]: 0.5 µg/mL (≈ 0.813 µM)
IC50 ([4]; cytosolic, Table 3 (Example 1), read-out: IC50 Cyt): 35 µM
IC50 ([4]; cytosolic, Table 3 (Example 2), read-out: IC50 Cyt): 35 µM
IC50 ([4]; cytosolic, Table 4 (Example 3), read-out: IC50 Cyt): 35 µM
IC50 ([4]; ribosomes with a human cytosolic decoding site, read-out: IC50 Cytosolic): 35 µM
IC50 ([5]; mitochondrial, Table 3 (Example 1), read-out: IC50 Mit): 4.3 µM
IC50 ([5]; mitochondrial, Table 3 (Example 2), read-out: IC50 Mit): 4.3 µM
IC50 ([5]; mitochondrial, Table 4 (Example 3), read-out: IC50 Mit): 4.3 µM
Target specificity bacterial vs. Mitochondrial ([5]; relative target specificity, bacterial vs. human mitochondrial): low
IC50 ([5]; ribosomes with a human mitochondrial decoding site, read-out: IC50 Mitoch.): 4.3 µM
MIC AG031 P. aer. APH(3′)-II ([6]; clinical isolate AG031, APH(3′)-II): 8 µg/mL (≈ 13 µM)
MIC AG032 P. aer. APH(3′)-II ([6]; clinical isolate AG032, APH(3′)-II): 8 µg/mL (≈ 13 µM)
MIC50 P aeruginosa AG31 ([6]; strain AG31, Table 1 (Example 2)): 32 µg/mL (≈ 52.1 µM)
MIC50 P aeruginosa AG32 ([6]; strain AG32, Table 1 (Example 2)): 32 to 64 µg/mL
MIC50 P aeruginosa AG33 ([6]; strain AG33, Table 1 (Example 2)): >128 µg/mL
MIC50 P aeruginosa AG86 ([6]; strain AG86, Table 1 (Example 2)): >128 µg/mL
MIC AG220 P. aerugin ([6]; strain AG220 Pseudomonas aeruginosa ATCC27853): 32 µg/mL (≈ 52.1 µM)
MIC AG290 E. cloacae [7]: 1 µg/mL (≈ 1.63 µM)
IC50 ([8]; Mycobacterium smegmatis ribosomes, read-out: IC50 Bacterial): 0.04 µM
IC50 ([8]; bacterial ribosome, Table 3 (Example 1), read-out: IC50 Bac): 0.04 µM
IC50 ([8]; bacterial ribosome, Table 3 (Example 2), read-out: IC50 Bac): 0.04 µM
IC50 ([8]; bacterial ribosome, Table 4 (Example 3), read-out: IC50 Bac): 0.04 µM
MIC M. abscessus ATCC 19977 WT ([9]; ATCC 19977 WT, Table 5 (Example 3)): 16 µg/mL (≈ 26 µM)
MIC M. abscessus ATCC ([9]; ATCC, Table 4 (Example 3)): 16 µg/mL (≈ 26 µM)
MIC M. abscessus Clin. Isol. ([9]; Clin. Isol., Table 4 (Example 3)): 16 µg/mL (≈ 26 µM)
MIC M. abscessus clinical isolate ([9]; clinical isolate, Table 5 (Example 3)): 16 µg/mL (≈ 26 µM)
MIC M. abscessus engineered Δeis2 ([9]; engineered Δeis2, Table 5 (Example 3)): 4 µg/mL (≈ 6.51 µM)
MIC E coli AG006 Wild type ([10]; AG006 Wild type, Table 2 (Example 3)): 0.25 to 0.5 µg/mL
MIC E coli AG104 Wild type ([10]; AG104 Wild type, Table 2 (Example 3)): 0.5 to 1 µg/mL
MIC50 E coli BM13 (AG06) wt ([10]; BM13 (AG06) wt, Table 2A (Example 2)): 1 µg/mL (≈ 1.63 µM)
MIC pH430 WT ([10]; E. coli strain pH430, WT): 1 μg/ml
MIC WT ([10]; Table 3 (Example 1)): 1 µg/mL (≈ 1.63 µM)
MIC WT ([10]; Table 3 (Example 2)): 1 µg/mL (≈ 1.63 µM)
MIC E. coli WT ([10]; Table 4 (Example 3)): 1 µg/mL (≈ 1.63 µM)
MIC E. coli WT ([10]; Table 5 (Example 3)): 0.5 to 1 µg/mL
MIC AG001 E. coli WT ([10]; clinical isolate AG001, WT): 1 µg/mL (≈ 1.63 µM)
MIC E coli AG001 ([10]; clinical isolate AG001, Table 1 (Example 3)): 4 µg/mL (≈ 6.51 µM)
MIC E coli AG003 ([10]; clinical isolate AG003, Table 1 (Example 3)): 1 µg/mL (≈ 1.63 µM)
MIC AG055 E. coli WT ([10]; clinical isolate AG055, WT): 1 µg/mL (≈ 1.63 µM)
MIC E coli AG055 ([10]; clinical isolate AG055, Table 1 (Example 3)): 1 µg/mL (≈ 1.63 µM)
MIC AG160 E. coli WT ([10]; clinical isolate AG160 WT, Table 2 (Example 4)): 1 µg/mL (≈ 1.63 µM)
MIC pH430 E. coli WT ([10]; engineered strain pH430 WT, Table 2 (Example 4)): 1 μg/ml
MIC50 E coli pH430 WT ([10]; pH430 WT, Table 2B (Example 2)): 1 μg/ml
MIC50 E coli AG01 ([10]; strain AG01, Table 1 (Example 2)): 2 µg/mL (≈ 3.25 µM)
MIC50 E coli AG03 ([10]; strain AG03, Table 1 (Example 2)): 1 µg/mL (≈ 1.63 µM)
MIC50 E coli AG55 ([10]; strain AG55, Table 1 (Example 2)): 1 to 2 µg/mL
MIC AG212 E. coli ([10]; strain AG212 E. coli (ATCC25922)): 0.5 to 1 µg/mL
IC50 [11]: 49 µM
